How the values were obtained:
Rats [1] = experiment: Heart rate in rats adapted to a thermoneutral environment; D500 dose and selectivity index (test b); conditions: selectivity index = ratio of D500 to ED50 in test (a)
BAT mitochondria = experiment: GDP binding in BAT mitochondria of cold-adapted rats as a measure of thermogenic activation (test a); assay type: in vivo; conditions: Rattus norvegicus, 1 h; oral; dose producing 50% of the effect of isoprenaline (1 mgkg-1) on GDP binding; rats sacrificed one hour after dosing
Rats [2] = experiment: Metabolic rate by closed-circuit oxygen consumption in fasted rats (test c); assay type: in vivo; conditions: at 1mgkg^-1 p.o.; determined for at least one hour after dosing

Row | SMILES | SI (Rats [1]; oral) | ED50 (BAT mitochondria) [mg/kg] | metabolic rate (Rats [2]) | SI (Rats [1]; route not stated)
1 | COCC(=O)Cc1ccc(OCCNCC(O)c2ccccc2)cc1 (stereo not shown) [Example 1, 1-[4-(2-(2-Hydroxy-2-phenylethylamino)ethoxy)phenyl]-3-methoxypropan-2-one] | > 50 | 0.98 | 4.99 ml O2 min^-1 (Kg^0.75)^-1 | –
2 | CC(C)NCC(O)c1ccc(O)c(O)c1 (stereo not shown) [isoprenaline, reference compound] | – | – | – | 0.06

Reference: patent EP0565317A1, “(2-(2-hydroxy-2 phenylethylamino)ethoxy) phenyl derivatives, processes and intermediates for their preparation, pharmaceutical compositions containing them and their use as Beta-3-adrenoceptor agonists” (ZENECA LIMITED, priority 1992, dated 1993)
